Measured values: patent US20090288225A1, “Novel Aromatic Acyltransferase Genes” (Aomori Prefecture, priority 2006, published 2009)

B1: CtSCPL1: butterfly pea SCPL acyltransferase, 487 amino acid residues, SEQ ID NO: 2 (protein)
chain: MAAFSSTHSACGILLLPLVVSSLICFQLASCGTIVEFLPGFDGPLPFVLETGYVGVGEGEDVQVFYYFVESENNPNEDPLMLWLTGGPGCSAFSGLALEIGPLIFKREEYNGGLPNLILRPHSWTKVSSIIFVDLPVSTGFTYARTDAAAQRSDWTLVHHAHEFLRKWLIDHPKFLQNELYIGGDSYSGIPIPVIVQEISQENEKGIQPWINLQGYILGNAITTRREKGYSIPFAHGMALISDELYESLRKNCKGEYLNVDPENVLCSRDIDSYSKATSRISFAHILERTCNSGDIKTSLRRSTIQRHHTKKFLNTNLKLPPLTCRTYANFQCGLWANDDNVRSALHIHKGSIGEWHRCSIRLPFTSDIPNSFEYHVNLSRKGYYRSLIYSGDHDMMVPFLGTQAWIRSLNYSIVDDWRPWNTNGQVAGYTRTYSNRMTYATIKGGGHTAPEFKPEECFAMYSRWISKRPLYENNTMSSYTNLASIL
modifications: Clitoria ternatea cv. Double Blue; Amino acid sequence of 1-O-acyl-Beta-D-glucose anthocyanin-O-acyltansferase
B2: LeGT13-20: lobelia 1-O-acyl-β-D-glucose synthase, 486 amino acid residues, SEQ ID NO: 16 (protein)
chain: MGSLQGTTTVENLTHVFLVSFPGQGHVNPLLRLGKILAFKGLLVTFSAPEMVGEIIKGANKYISDDELTPIGDGMIRFEFFSDGLGNTKEDNSLRGNMDLYMPQLATFAKKSLSEILIKHEKHGRPVACLINNPFIPWISELAEEFNIPSAVLWVQSCASFSAYYHYHHGLVPFPTENEPERDVQLPNMPLLKYDEIPGFLLPSSPYGFLRRAILGQFKLLSKPICILVESFQELENDCINYLSTLCPIKPIGPLFSNPSVRNGSSIRGDFMKVEDCIDWLNTRADSSVVYVSFGSIVYVKQEQITEIARGLADSGLSFLWAFKQPGIDMGLTPPSLPDGFLEEVKGRGKVVEWCSQEAVLSHPAVSCFMSHCGWNSTMEALSSGVPVAAFPIWGDQVTDAKFLVDEFKVGIRMCRGEADINKKVVTREEIARCLLAATSGPKAEELKRNALKWKKAAADSVGAGGSSDRNLEEFVGSIRKDVVGH
modifications: Lobelia erinus cv.Riviera Midnight Blue; Amino acid sequence of UDP-glucose hydroxycinnamic acid 1-O-glucosyltransferase

How the values were obtained:
[1] = test system: 35-70% ammonium sulfate precipitate fraction of the protein extracted from butterfly pea petals; assay: Examination of substrates: acyltransferase activity with butterfly pea petal protein fraction; assay type: biochemical, butterfly pea (Clitoria ternatea); settings: for acyltransferase activity as acyl donor: acyl receptor preternatin C5, specific activity order: sinapoyl, feruloyl, p-coumaroyl, caffeoyl glucose (highest first); for acyltransferase activity as acyl acceptor: acyl donor 1-O-p-coumaroyl-β-D-glucose
Experimental: (§1) A reaction solution (20 μl) containing 100 mM phosphate buffer (pH 6.5), 0.4 mM anthocyanin (4 μl), 0.5 mM 1-O-acyl-β-D-glucose (4 μl) and an enzyme solution (8 μl) was reacted at 30° C. The reaction was terminated by adding 4 μl of 1M aqueous hydrochloric acid solution. After addition of 24 μl of 5% acetonitrile containing 0.05 M TFA, the reaction solution was filtered with Millex-LH filter (Millipore) and then analyzed by HPLC by feeding a 10 μl aliquot.
(§2) HPLC analysis of anthocyanin acyltransferase reaction products were performed with Develosil ODS-UG-5 column (3.0 i.d.×250 mm; Nomura Chemical) at a column temperature of 35° C. Against an initial solvent that was 0.05 M trifluoroacetate (TFA)-containing 5% acetonitrile (MeCN) aqueous solution, 0.05 M TFA-containing 40% MeCN was added with a linear concentration gradient from 14 to 86% (20 min) and the reaction products were eluted at a flow rate of 0.5 ml/min. The reaction products were detected with PDA and their molecular weights were confirmed by LC-MS/MS.
In order to detect an enzyme activity of transferring an aromatic acyl group to the sugar residue of flavonoids using 1-O-acyl-β-D-glucose as an acyl donor, various types of 1-O-acyl-β-D-glucose and anthocyanin were examined. Briefly, enzyme activities were measured using 35-70% ammonium sulfate precipitate fraction of the protein extracted from butterfly pea petals as an enzyme solution, preternatin C5 as an acyl receptor, and various 1-O-acyl-β-D-glucoses as an acyl donor. […] Specific activity was higher in the following order: 1-O-sinapoyl-β-D-glucose, 1-O-feruloyl-β-D-glucose, 1-O-p-coumaroyl-β-D-glucose and 1-O-caffeoyl-β-D-glucose. Further, enzyme activities were measured using 1-O-p-coumaroyl-β-D-glucose as an acyl donor and various types of anthocyanin as an acyl acceptor.

[2] = Enzyme activity of recombinant CtSCPL1 protein expressed in Baculovirus-Sf9 insect cells; assay type: biochemical, butterfly pea (Clitoria ternatea)
Experimental: as §1, §2
Sf9 cells monolayer-cultured in complete Grace medium or Sf900II-SFM serum free medium (Gibco) in 6-well plates (3×10^6 cells) were infected with the recombinant virus at a multiplicity of infection (MOI) of 5-10. […] Enzyme reaction was performed using the thus concentrated protein solution, and the reaction product was analyzed by HPLC and LC-MS. […]

[3] = UDP-glucose:hydroxycinnamate 1-O-glucosyltransferase activity of recombinant proteins from E. coli; assay type: biochemical; settings: against all four types of hydroxycinnamic acid used
Experimental: The transformed E. coli was shaking-cultured overnight in 3 ml of LB medium containing 50 μg/ml kanamycin and 34 μg/ml chloramphenicol. This culture broth (500 μl) was inoculated into LB medium (50 ml) and shaking-cultured until absorbance at 600 nm reached 0.4. Then, isopropyl-β-D-thiogalactoside (IPTG) was added to give a final concentration of 0.4 mM. The cells were shaking-cultured at 25° C. for 16 hr and then harvested by refrigerated centrifugation (8000 rpm, 4° C., 20 min). CtGT11-4 protein was partially purified from the cells using Ni-NTA mini-column according to the method recommended by the manufacturer. […]
For measuring enzyme activity, a 30 μl reaction solution containing 100 mM potassium phosphate buffer (pH 7.4), 30 pmole of UDP-glucose, 30 pmole of hydroxycinnamic acid and 15 μl of recombinant protein solution was reacted at 30° C. […] The enzyme reaction products were analyzed by reversed-phase high performance liquid chromatography (Shiseido NanoSpace system) using Develosil C30-UG-5 (1.5 i.d.×250 mm). […] The eluted materials were detected with a PDA detector, and the resultant data were analyzed to thereby quantitatively determine 1-O-acyl-β-D-glucose. […]
LeGT13-20 and LeGT13-30 genes were expressed using pET30Ek/LIC System (Novagen). […] Resultant several clones were analyzed to confirm the nucleotide sequences thereof, and then transformed into E. coli BL21-CodonPlus(DE3)-RP. […]

| Molecule | acyltransferase activity as acyl donor [1] | acyltransferase activity as acyl acceptor [1] | further results |
| --- | --- | --- | --- |
| O=C(/C=C/c1ccc(O)cc1)O[C@@H]1O[C@H](CO)[C@@H](O)[C@H](O)[C@H]1O [1-O-p-coumaroyl-β-D-glucose] | acyltransferase activity was detected | – | – |
| O=C(O)CC(=O)OC[C@H]1O[C@@H](Oc2cc3c(O)cc(O)cc3[o+]c2-c2cc(O[C@@H]3O[C@H](CO)[C@@H](O)[C@H](O)[C@H]3O)c(O)c(O[C@@H]3O[C@H](CO)[C@@H](O)[C@H](O)[C@H]3O)c2)[C@H](O)[C@@H](O)[C@@H]1O [ternatin C5, Delphinidin 3-(6-malonyl)glucoside 3′,5′-diglucoside] | – | acyltransferase activity was detected | – |
| COc1cc(/C=C/C(=O)O[C@@H]2O[C@H](CO)[C@@H](O)[C@H](O)[C@H]2O)ccc1O [1-O-feruloyl-β-D-glucose] | acyltransferase activity was detected | – | – |
| OC[C@H]1O[C@@H](Oc2cc3c(O)cc(O)cc3[o+]c2-c2cc(O[C@@H]3O[C@H](CO)[C@@H](O)[C@H](O)[C@H]3O)c(O)c(O[C@@H]3O[C@H](CO)[C@@H](O)[C@H](O)[C@H]3O)c2)[C@H](O)[C@@H](O)[C@@H]1O [preternatin C5, delphinidin 3,3′,5′-triglucoside] | – | acyltransferase activity was detected | – |
| COc1cc(/C=C/C(=O)O[C@@H]2O[C@H](CO)[C@@H](O)[C@H](O)[C@H]2O)cc(OC)c1O [1-O-sinapoyl-β-D-glucose] | acyltransferase activity was detected | – | – |
| O=C(O)CC(=O)OCC1OC(Oc2cc3c(O)cc(O)cc3[o+]c2-c2cc(O)c(O)c(OC3OC(CO)C(O)C(O)C3O)c2)C(O)C(O)C1O (stereo not shown) [delphinidin 3-(6-malonyl)glucoside-3′-glucoside] | – | acyltransferase activity was detected | – |
| O=C(/C=C/c1ccc(O)c(O)c1)O[C@@H]1O[C@H](CO)[C@@H](O)[C@H](O)[C@H]1O [1-O-caffeoyl-β-D-glucose] | acyltransferase activity was detected | – | – |
| B1 | – | – | 3′AT activity ([2]; substrates preternatin C5 or delphinidin 3-(6-malonyl)glucoside-3′-glucoside and 1-O-feruloyl-β-D-glucose): 3′AT activity was confirmed; 3′AT activity ([2]; substrates ternatin C5 and 1-O-p-coumaroyl-β-D-glucose): 3′AT activity was also recognized |
| B2 | – | – | glucosyltransferase activity [3]: glucosyltransferase activity was confirmed |
